Reference: patent US9936699B2, “Halogen-substituted compounds” (BAYER CROPSCIENCE AKTIENGESELLSCHAFT, priority 2014, dated 2018)

Tests used:
[1] = test system: adult house flies (Musca domestica); test: Musca domestica test (MUSCDO); type: in vivo; conditions: 100 ppm, after 2 days
Excerpt: Musca domestica—Test (MUSCDO)
(§1) Solvent: dimethyl sulfoxide
10 adult house flies (Musca domestica) are transferred into a container, containing a sponge soaked with a mixture of sugar solution and compound solution of the desired concentration.

[2] = test system: adult engorged female ticks (Boophilus microplus); test: Boophilus microplus injection test (BOOPMI Inj); type: in vivo; conditions: 20 μg/animal, egg deposition after 7 days
Method: Boophilus microplus—Injectiontest (BOOPMI Inj)
as §1
Five adult engorged female ticks (Boophilus microplus) are injected with 1 μl compound solution into the abdomen. The ticks are transferred into replica plates and incubated in a climate chamber.
(§2) After 7 days egg deposition of fertile eggs is monitored. Eggs where fertility is not visible are stored in a climate chamber till hatching after about 42 days. An efficacy of 100% means all eggs are infertile; 0% means all eggs are fertile.

[3] = logP determination by HPLC on reversed-phase column (C18), EEC Directive 79/831 Annex V.A8; type: physicochemical; conditions: reversed-phase C18, acetonitrile/water with formic acid; for chromatographic logP: reversed-phase C18 HPLC column
[4] = test system: adult cat fleas (Ctenocephalides felis); test: Ctenocephalides felis in-vitro contact test, adult cat flea; type: in vivo; conditions: 5 μg/cm^2 (=500 g/ha), after 48 hours
Method: Ctenocephalides felis—In-Vitro Contact Tests Adult Cat Flea
(§3) 9 mg compound is solved in 1 ml acetone and diluted with acetone to the desired concentration. 250 μl of the test solution is filled in 25 ml glass test tubes and homogeneously distributed on the inner walls by rotation and tilting on a shaking device (2 h at 30 rpm). With a compound concentration of 900 ppm, an inner surface of 44.7 cm^2 and a homogeneous distribution, a dose of 5 μg/cm^2 is achieved.
(§4) After the solvent has evaporated, each test tube is filled with 5-10 adult cat fleas (Ctenocephalides felis), closed with a perforated lid and incubated in a lying position at room temperature and relative humidity. After 48 hours efficacy is determined. The fleas are patted on the ground of the tubes and are incubated on a heating plate at 45-50° C. for at most 5 minutes. Immotile or uncoordinated moving fleas, which are not able to escape the heat by climbing upwards, are marked as dead or moribund.
An efficacy of 100% means all fleas are dead or moribund; 0% means no fleas are dead or moribund.

[5] = test system: two-spotted spider mite (Tetranychus urticae); test: Tetranychus urticae spray test; OP-resistant (bean plants); type: in vivo; conditions: after 7 days
[6] = test system: green peach aphid (Myzus persicae); test: Myzus persicae spray test (pepper leaves); type: in vivo; conditions: after 6 days
[7] = test system: larvae of the Australian sheep blowfly (Lucilia cuprina); test: Lucilia cuprina test (LUCICU); type: in vivo; conditions: 100 ppm, after 2 days
Method: Lucilia cuprina—Test (LUCICU)
as §1
10 mg active compound are dissolved in 0.5 ml Dimethylsulfoxid. Serial dilutions are made to obtain the desired rates.
Approximately 20 […] instar larvae of the Australian sheep blowfly (Lucilia cuprina) are transferred into a test tube containing minced horse meat and compound solution of the desired concentration.

[8] = test system: fall armyworm larvae (Spodoptera frugiperda); test: Spodoptera frugiperda spray test (maize leaf sections); type: in vivo; conditions: 100 g/ha, after 7 days
Excerpt: Spodoptera frugiperda—Spray Test
(§5) Solvent: 78.0 parts by weight acetone
(§6) • 1.5 parts by weight dimethylformamide Emulsifier: alkylarylpolyglycol ether
Maize (Zea mays) leaf sections are sprayed with a preparation of the active ingredient of the desired concentration. Once dry, the leaf sections are infested with fall armyworm larvae (Spodoptera frugiperda).

[9] = test system: two spotted spidermite (Tetranychus urticae); test: Tetranychus urticae spray test OP-resistant (French bean leaf disks); type: in vivo; conditions: 100 g/ha, after 6 days
Method: Tetranychus urticae—Spray Test OP-Resistant
as §5, §6
French bean (Phaseolus vulgaris) leaf disks which are heavily infested with all stages of the two spotted spidermite (Tetranychus urticae) are sprayed with a preparation of the active ingredient of the desired concentration.
(§7) After 6 days mortality in % is determined.

[10] = test system: Tick nymphs (Amblyomma hebraeum); test: Amblyomma hebraeum test (AMBYHE); type: in vivo; conditions: 100 ppm, after 42 days
Method: Amblyomma hebraeum—Test (AMBYHE)
as §1
Tick nymphs (Amblyomma hebraeum) are placed in perforated plastic beakers and immersed in the aqueous compound solution for one minute. Ticks are transferred to a filter paper in a petridish and incubated in a climate chamber.

[11] = test system: cattle ticks (Boophilus microplus) strane Parhurst, SP-resistant; test: Boophilus microplus dip test (BOOPMI Dip); type: in vivo; conditions: 100 ppm, egg deposition after 7 days
Excerpt: Boophilus microplus—Diptest (BOOPMI Dip)
Test animal: cattle ticks (Boophilus microplus) strane Parhurst, SP-resistant
as §1
This compound solution is pipetted into tubes. 8-10 engorged, adult, female cattle ticks (Boophilus microplus) are placed in perforated tubes. These tubes are immersed in the aqueous compound solution until the ticks are completely moistened. After the liquid has drained off, the ticks are transferred to a filter paper in a plastic tray and stored in a climate chamber.
as §2

[12] = test system: adult brown dog ticks (Rhipicephalus sanguineus); test: Rhipicephalus sanguineus in-vitro contact test with adult brown dog ticks; type: in vivo; conditions: 5 μg/cm^2 (=500 g/ha), after 48 hours
Method: Rhipicephalus sanguineus—In-Vitro Contact Tests with Adult Brown Doe Ticks
as §3
as §4, with “brown dog ticks (Rhipicephalus sanguineus),” for “cat fleas (Ctenocephalides felis),”, “ticks” for “fleas”, “ticks,” for “fleas,”
An efficacy of 100% means all ticks are dead or moribund; 0% means no ticks are dead or moribund.

[13] = test system: green peach aphid (Myzus persicae); test: Myzus persicae spray test (Chinese cabbage leaf disks); type: in vivo; conditions: 20 g/ha, after 6 days
Method: Myzus persicae—Spray Test
as §5, §6
Chinese cabbage (Brassica pekinensis) leaf disks infected with all instars of the green peach aphid (Myzus persicae), are sprayed with a preparation of the active ingredient of the desired concentration.
as §7

Compound: Cn1nc(C(F)(F)C(F)(F)F)c([S+](C)[O-])c1-n1cc(-c2ccc(Cl)c(C(=O)NC3(C#N)CC3)c2)cn1 (racemic) [Example I-03]
- mortality in % [1]: 100%
- efficacy (infertile eggs) [2]: 100%
- logP [3]: 2.61
- efficacy (fleas dead or moribund) [4]: 100%

Compound: Cn1nc(C(F)(F)C(F)(F)F)c([S+](C)[O-])c1-n1cc(-c2ccc(Cl)c(C(=O)NC3(C#N)CC3)c2)cn1 (single isomer, unassigned) [Example I-08]
- logP [3]: 2.59

Compound: Cn1nc(C(F)(F)C(F)(F)F)c([S+](C)[O-])c1-n1cc(-c2ccc(Cl)c(C(=O)NC3(C#N)CC3)c2)cn1 (single isomer, unassigned) [Example I-21]
- logP [3]: 2.59

Compound: Cn1nc(C(F)(F)C(F)(F)F)c(N)c1-n1cc(Br)cn1 [Example 14, 4-bromo-2′-methyl-5′-(pentafluoroethyl)-2′H-1,3′-bipyrazol-4′-amine]
- chromatographic logP [3]: 2.68

Compound: CSc1c(C(F)(F)C(F)(F)F)nn(C)c1-n1cc(Br)cn1 [Example 15, 4-bromo-2′-methyl-4′-(methylsulfanyl)-5′-(pentafluoroethyl)-2′H-1,3′-bipyrazole]
- chromatographic logP [3]: 3.95

Compound: Cn1nc(C(F)(F)F)c([S+](C)[O-])c1-n1cc(-c2ccc(Cl)c(C(=O)NC3(C#N)CC3)c2)cn1 (centres unmarked) [Example I-01]
- logP [3]: 2.16
- mortality in % ([5]; 20 ppm): 100%

Compound: Cn1nc(C(F)(F)C(F)(F)F)c(S(C)(=O)=O)c1-n1cc(-c2ccc(Cl)c(C(=O)NC3(C#N)CC3)c2)cn1 [Example I-04]
- mortality in % [1]: 100%
- efficacy (infertile eggs) [2]: 100%
- logP [3]: 2.77

Compound: Cn1nc(C(F)(F)F)c(S(C)(=O)=O)c1-n1cc(-c2ccc(Cl)c(C(=O)NC3CC3)c2)cn1 [Example I-05]
- efficacy (infertile eggs) [2]: 100%
- logP [3]: 2.34
- mortality in % ([6]; 20 ppm): 100%
- mortality in % [7]: 90%

Compound: Cn1nc(C(F)(F)C(F)(F)F)c([S+](C)[O-])c1-n1cc(-c2ccc(Cl)c(C(=O)NC3CC3)c2)cn1 (centres unmarked) [Example I-06]
- mortality in % [1]: 100%
- mortality in % [8]: 100%
- efficacy (infertile eggs) [2]: 100%
- logP [3]: 2.60
- mortality in % [9]: 90%
- mortality in % ([6]; 20 ppm): 99%
- efficacy (fleas dead or moribund) [4]: 100%
- mortality in % ([5]; 20 ppm): 90%

Compound: Cn1nc(C(F)(F)C(F)(F)F)c(S(C)(=O)=O)c1-n1cc(-c2ccc(Cl)c(C(=O)NC3CC3)c2)cn1 [Example I-07]
- mortality in % [1]: 100%
- mortality in % [8]: 100%
- efficacy (infertile eggs) [2]: 100%
- logP [3]: 2.78
- efficacy (fleas dead or moribund) [4]: 100%
- mortality in % [10]: 100%
- efficacy (infertile eggs) [11]: 100%

Compound: Cc1ccc(-c2cnn(-c3c(S(C)(=O)=O)c(C(F)(F)C(F)(F)F)nn3C)c2)cc1C(=O)NC1CC1 [Example I-09]
- mortality in % [1]: 80%
- efficacy (infertile eggs) [2]: 100%
- logP [3]: 2.75
- efficacy (fleas dead or moribund) [4]: 100%
- mortality in % [7]: 90%
- efficacy (infertile eggs) [11]: 80%

Compound: Cc1ncc(-c2cnn(-c3c([S+](C)[O-])c(C(F)(F)C(F)(F)F)nn3C)c2)cc1C(=O)NC1(C#N)CC1 (centres unmarked) [Example I-10]
- logP [3]: 1.99

Compound: CCSc1c(C(F)(F)C(F)(F)F)nn(C)c1-n1cc(-c2ccc(Cl)c(C(=O)NC3CC3)c2)cn1 [Example I-11]
- mortality in % [1]: 100%
- mortality in % [8]: 100%
- efficacy (infertile eggs) [2]: 100%
- logP [3]: 3.85
- mortality in % [10]: 100%
- efficacy (infertile eggs) [11]: 100%

Compound: CSc1c(C(F)(F)C(F)(F)F)nn(C)c1-n1cc(-c2ccc(Cl)c(C(=O)NC3CC3)c2)cn1 [Example I-12]
- mortality in % [1]: 100%
- mortality in % [8]: 100%
- efficacy (infertile eggs) [2]: 100%
- logP [3]: 3.65
- efficacy (ticks dead or moribund) [12]: 100%
- efficacy (fleas dead or moribund) [4]: 100%
- efficacy (infertile eggs) [11]: 100%

Compound: Cc1ncc(-c2cnn(-c3c([S+](C)[O-])c(C(F)(F)C(F)(F)F)nn3C)c2)cc1C(=O)NC1CC1 (centres unmarked) [Example I-14]
- logP [3]: 1.85

Compound: CCSc1c(C(F)(F)C(F)(F)F)nn(C)c1-n1cc(-c2ccc(Cl)c(C(=O)NC3(C#N)CC3)c2)cn1 [Example I-15]
- mortality in % [1]: 90%
- mortality in % [8]: 100%
- efficacy (infertile eggs) [2]: 100%
- logP [3]: 3.76
- efficacy (ticks dead or moribund) [12]: 100%
- efficacy (fleas dead or moribund) [4]: 100%
- mortality in % [10]: 100%
- efficacy (infertile eggs) [11]: 100%

Compound: CSc1c(C(F)(F)C(F)(F)F)nn(C)c1-n1cc(-c2ccc(C)c(C(=O)NC3(C#N)CC3)c2)cn1 [Example I-16]
- logP [3]: 3.55

Compound: CSc1c(C(F)(F)C(F)(F)F)nn(C)c1-n1cc(-c2ccc(C)c(C(=O)NC3CC3)c2)cn1 [Example I-17]
- logP [3]: 3.64

Compound: Cc1ccc(-c2cnn(-c3c([S+](C)[O-])c(C(F)(F)C(F)(F)F)nn3C)c2)cc1C(=O)NC1CC1 (centres unmarked) [Example I-18]
- efficacy (infertile eggs) [2]: 100%
- logP [3]: 2.57
- efficacy (ticks dead or moribund) [12]: 80%
- efficacy (fleas dead or moribund) [4]: 100%

Compound: CSc1c(C(F)(F)C(F)(F)F)nn(C)c1-n1cc(-c2cnc(Cl)c(C(=O)N(C)C3CC3)c2)cn1 [Example I-19]
- logP [3]: 3.67

Compound: Cn1nc(C(F)(F)C(F)(F)F)c([S+](C)[O-])c1-n1cc(-c2cnc(Cl)c(C(=O)NC3(C#N)CC3)c2)cn1 (centres unmarked) [Example I-20]
- mortality in % [1]: 90%
- efficacy (infertile eggs) [2]: 100%
- logP [3]: 2.23
- mortality in % ([6]; 4 ppm): 95%

Compound: CC[S+]([O-])c1c(C(F)(F)C(F)(F)F)nn(C)c1-n1cc(-c2ccc(Cl)c(C(=O)NC3CC3)c2)cn1 (centres unmarked) [Example I-22]
- logP [3]: 2.88

Compound: Cc1ccc(-c2cnn(-c3c(S(C)(=O)=O)c(C(F)(F)C(F)(F)F)nn3C)c2)cc1C(=O)NC1(C#N)CC1 [Example I-23]
- efficacy (infertile eggs) [2]: 100%
- logP [3]: 2.79
- mortality in % [13]: 100%

Compound: Cc1ccc(-c2cnn(-c3c([S+](C)[O-])c(C(F)(F)C(F)(F)F)nn3C)c2)cc1C(=O)NC1(C#N)CC1 (centres unmarked) [Example I-24]
- efficacy (infertile eggs) [2]: 100%
- logP [3]: 2.57

Compound: CC[S+]([O-])c1c(C(F)(F)C(F)(F)F)nn(C)c1-n1cc(-c2ccc(Cl)c(C(=O)NC3(C#N)CC3)c2)cn1 (centres unmarked) [Example I-25]
- logP [3]: 2.84
- mortality in % ([5]; 4 ppm): 95%
